Measured values taken from patent US10758609B2, “Cross-reactive T-cell epitopes of HIV, SIV, and FIV for vaccines in humans and cats” (priority 2015, dated 2020).

What was measured:
[1] = test system: PBMC from FIV-vaccinated cats; experiment: Feline IFNγ ELISpot of PBMC from vaccinated cats; format: cell-based, cat
Procedure: (§1) IFNγ and IL2 ELISpot analyses were performed using feline IFNγ ELISpot and feline IL2 ELISpot kits (R&D Systems, Cat# SEL764 and SEL1890) as described. The threshold is defined as ≥50 spot forming units (SFU) per 1×10^6 PBMC when counted with MVS ELISpot Reader (MVS Pacific, LLC). Each result is an average of the duplicate samples after subtraction of the average value of the media controls.
(§2) Concurrently, the overlapping peptide pools of FIV structural/enzyme proteins were used to stimulate PBMC and T cells from FIV-vaccinated cats. These cats were vaccinated with prototype dual-subtype FIV vaccine which was the prototype to our commercial FIV vaccine (Coleman et al., 2014). The feline assays (Example 1) equivalent to those of human assays (Sanou et al., 2013; Roff et al., 2015) were used except for ICS analysis. In place of ICS for cytolysin/cytotoxins, IL2 ELISpot analysis was performed. […] The results for FIV-vaccinated cats included IFNγ and IL2 productions and CD3^+CD4+ and CD3^+CD8^+ T-cell proliferation (Table 9, the second set of results).
(§3) The feline IFNγ and L2 ELISpot analyses of PBMC to FIV MAPs and peptides were performed as previously described (Abbott et al. (2012)) using feline IFNγ modular kit (R&D Systems, Minneapolis, Minn.) and feline IL2 modular kit (R&D Systems). All results shown in the figures (FIGS. 8A-1, 8B-1, 8A-2, 8B-2, 8A-3, 8B-3) are after subtracting the average value of the results from all control cats.
(§4) The second parameter evaluated was the ability of the peripheral blood mononuclear cells (PBMC) from vaccinated and control cats to produce IL2 and interferon-γ (IFNγ) proteins in responses to FIV MAPs and peptides (FIGS. 8A-1, 8A-2, 8A-3, 8B-1, 8B-2, 8B-3) using feline IL2 and IFNγ ELISpot assays (Aranyos et al. (2016); Abbott et al. (2012)). IL2 enhances the proliferation of FIV-specific CD4^+ T cells and CD8^+ T cells. IFNγ is known enhance the FIV-specific CTL activities in vaccinated cats (Abbas et al. (2015)).

[2] = test system: PBMC from FIV-vaccinated cats; experiment: Feline IL2 ELISpot of PBMC from vaccinated cats; format: cell-based, cat; details: FIV peptides
Procedure: as §1, §2, §3, §4

FIVFC1 = experiment: FIV enhancement and suppression (E/S) analysis of in vitro FIV infection of feline PBMC; format: cell-based, feline immunodeficiency virus; details: FIV peptides; in vitro FIV infection of uninfected cat PBMC
Procedure: FIV viral enhancement or suppression was determined using a 48-well modification of the method described for detecting FIV enhancing activity of IFNγ and FIV suppressive activity of IFNα [37]. […] MAP1c contained four branched chains of peptide Fp4-3. T-cell mitogen concanavalin A (ConA) at 4 μg/mL was used as an infection enhancing control. Six hours after the culturing with peptide, MAP, or ConA, varying dilutions of FIVFC1 were added to the wells. Seventy-two hours later the cells were re-cultured in fresh culture media with ConA-stimulated autologous PBMC (0.25-0.5×10^6) using the same amount of corresponding peptide, MAP, ConA or media. On Day 7, 10, and 13 of culture, 0.5 mL of culture fluid was collected and 0.5 mL of fresh media added to maintain a consistent volume. The harvested culture samples were analyzed for FIV titer using the previously described RT assay. The results are shown as the end-point dilution titer from two studies using PBMC from different SPF donors.
Statistical analysis. The statistically significant differences between the end-point dilution titers of the peptide or MAP culture samples and either the virus control samples or specific MAP culture samples were calculated using a paired Student t-test with a two-tailed distribution (SigmaPlot version 11.0). Statistical comparisons between pre and post-vaccination(s) were similarly performed. The comparison was considered statistically significant when p<0.05.

[3] = test system: feline CD3^+CD8^+ T cells; experiment: CFSE-based feline CD3+CD8+ T-cell proliferation; parameters: species or system cat
Procedure: (§5) Carboxyfluorescein diacetate succinimide ester (CFSE)-proliferation was performed according to the manufacturer's protocol (Invitrogen, Grand Island, N.Y.) and processed using a previously described modification. The modification consisted of 2.5×10^5 CFSE-labeled feline PBMC stimulated for 5 days (37° C., 5% CO2) with 4 μg/mL peptide in culture media (RPMI medium 25 µg/mL gentamycin, and 10% heat-inactivated fetal bovine serum (FBS)). Peptide pools consisted of 3-5 overlapping peptides of 4 μg/mL each. The antibodies used for flow cytometry based proliferation analysis consisted of murine anti-feline (Fe) CD3 monoclonal antibody (MAb clone kindly provided by Drs. Yorihiro Nishimura and Takayuki Miyazawa; described in [32]) combined with secondary goat anti-mouse IgG3-APC/CY7 MAb (SouthernBiotech, Birmingham, Ala.; Cat#1100-19); and murine anti-FeCD4-PE MAb (SouthernBiotech, Cat#8130-09); and murine anti-FeCD8 MAb (MAb clone kindly provided by Dr. Nazareth Gengozian, described in [33]) with secondary goat anti-mouse IgG2a-PE/CY7 (Southern Biotech, Cat#1080-17). The murine anti-B220-APC MAb for detecting feline B cells (SouthernBiotech, Cat#1665-11) and previously described MAbs for CFSE were used for FACS phenotyping. Both FACS phenotyping and CFSE-proliferation analyses were performed with BD LSRII and FACSDiva™ Software (BD Biosciences, San Jose, Calif.). The final value for each sample was derived after subtraction of the average value of the media controls using a positive threshold of ≥1 CFSE^low.
as §2
(§6) Carboxyfluorescein diacetate succinimide ester (CFSE)-proliferation analysis was according to the manufacturer's protocol (Invitrogen-Fisher, Carlsbad, Calif.) and processed as previously described (Roff et al. (2015)) using the following modifications: anti-feline CD3 antibody ((clone NZM1), a generous gift from T. Miyazawa (Univ. of Tokyo, Japan)) in combination with APC-conjugated anti-mouse IgG3 (Southern Biotech, Birmingham, Ala.), PE-conjugated anti-feline CD4 antibody (Southern Biotech), and anti-feline CD8 antibody (gift from N. Gengozian, University of Tennessee (Gengozian et al. (1997))) in combination with PE/Cy7-conjugated anti-mouse IgG2b (Southern Biotech) to detect the proliferation of feline CD3^+CD4+ T cells and feline […]. All results shown in the figures (FIGS. 7A-1, 7B-1, 7A-2, 7B-2, 7A-3, 7B-3) are after subtracting the average value of each results from all control cats. The threshold of CFSE proliferation is ≥0.5 CFSE^low. […]

[4] = test system: feline CD3^+CD4^+ T cells; experiment: CFSE-based feline CD3+CD4+ T-cell proliferation; parameters: species or system cat; details: FIV peptides; FIV-vaccinated cats
Procedure: as §5, §2, §6

[5] = cats of Group 1, MAP Vaccine Trial 1 (FIG. 3)

Sequence: KKKSGKWRLIDFRVLNKL [FRT3-3/4]
- IFNγ, frequency of responders ([1]; FIV peptides, FIV-vaccinated cats (prototype dual-subtype vaccine)): +++ (40.1%-54% (+++))
- IFNγ production [1, 5]: 531 SFU/10^6 PBMC
- IL2, frequency of responders [2]: ++++ (>54% (++++))
- FIV Test E/S (enhancer/suppressor analysis) (FIVFC1): ↓
- CD8^+ T (T-cell proliferation), frequency of responders ([3]; FIV peptides, FIV-vaccinated cats): +++ (40.1%-54% (+++))
- Responder frequency in CD8+ T-cell proliferation ([3]; FIV-vaccinated cats, in vitro analyses (Table 9)): 44.4%
- % CD8+ T-cell CFSE^low over % CD4+ T-cell CFSE^low ratio (CD8/CD4 response ratio) [3, 5]: 9
- CDC4^+ T (T-cell proliferation), frequency of responders [4]: — (0%-1.4%(—))
